Test results taken from PMC4447944 (The Journal of Biological Chemistry, 2015).

What was measured:
[1] = molecular target: T1, hCSNK1G1 (Homo sapiens, UniProt Q9HCP0); assay: KINOMEscan; type: binding
T1 construct: purchased DiscoverX (KINOMEscan platform)

[2] = molecular target: SMYD2 (Homo sapiens, UniProt Q9NRG4); assay: Thermal denaturation fluorometry (differential scanning fluorometry); type: binding; conditions: 100 μM LLY-507
Description: SMYD2 protein unfolding was monitored on a 384-well Roche Lightcycler480 II^TM RT-PCR machine using SYPRO® Orange as a reporter dye (Invitrogen, S6651). Excitation and emission filters were set at 465 and 580 nm, respectively; the temperature was continuously ramped from 25 to 95 °C at a rate of 0.11°C/s. The reaction mixture (6 μl/well) contained 3.9 μM SMYD2 protein and 100 μM compound in 20 mM Tris, pH 8.0, 150 mM NaCl, 10% glycerol, 2 mM tris(2-carboxyethyl)phosphine (TCEP), and 1% DMSO buffer. Triplicates were run along with protein without compound as a negative control.

[3] = molecular target: T2, hHCK (Homo sapiens, UniProt P08631); assay: KINOMEscan; type: binding
T2 construct: purchased DiscoverX

[4] = molecular target: T3, hAXL (Homo sapiens, UniProt P30530); assay: KINOMEscan; type: binding
T3 construct: purchased DiscoverX

[5] = molecular target: T4, hTSSK1B (Homo sapiens, UniProt Q9BXA7); assay: KINOMEscan; type: binding
T4 construct: purchased DiscoverX

[6] = molecular target: T5, hTRPM6 (Homo sapiens, UniProt Q9BX84); assay: KINOMEscan; type: binding
T5 construct: purchased DiscoverX

[7] = molecular target: T6, hEGFR(G719C) (Homo sapiens, UniProt P00533, G719C); assay: KINOMEscan; type: binding
T6 construct: purchased DiscoverX

[8] = molecular target: T7, hIKK-beta (Homo sapiens, UniProt O14920); assay: KINOMEscan; type: binding
T7 construct: purchased DiscoverX (KINOMEscan panel)

[9] = system: MDA MB-231 cells; assay: Proliferation assay (CellTiter-Glo); type: cell-based, human
Description: Cell viability was measured using CellTiter-Glo^TM (Promega) according to the manufacturer's instructions.

[10] = molecular target: T8, hDMPK2 (Homo sapiens, UniProt Q6DT37); assay: KINOMEscan; type: binding
T8 construct: purchased DiscoverX (KINOMEscan platform)

[11] = molecular target: T9, hBMPR1A (Homo sapiens, UniProt P36894); assay: KINOMEscan; type: binding
T9 construct: purchased DiscoverX

[12] = molecular target: T10, hCSNK1G2 (Homo sapiens, UniProt P78368); assay: KINOMEscan; type: binding
T10 construct: purchased DiscoverX (KINOMEscan platform)

[13] = molecular target: T11, hAKT2 (Homo sapiens, UniProt P31751); assay: KINOMEscan; type: binding
T11 construct: purchased DiscoverX

[14] = molecular target: T12, hEPHA2 (Homo sapiens, UniProt P29317); assay: KINOMEscan; type: binding
T12 construct: purchased DiscoverX

[15] = molecular target: T13, hADRα1A (Homo sapiens, UniProt P35348); assay: Calcium Mobilization Agonist (Eurofins-CEREP); conditions: @ 13.3 μM
T13 sequence (P35348 1-466): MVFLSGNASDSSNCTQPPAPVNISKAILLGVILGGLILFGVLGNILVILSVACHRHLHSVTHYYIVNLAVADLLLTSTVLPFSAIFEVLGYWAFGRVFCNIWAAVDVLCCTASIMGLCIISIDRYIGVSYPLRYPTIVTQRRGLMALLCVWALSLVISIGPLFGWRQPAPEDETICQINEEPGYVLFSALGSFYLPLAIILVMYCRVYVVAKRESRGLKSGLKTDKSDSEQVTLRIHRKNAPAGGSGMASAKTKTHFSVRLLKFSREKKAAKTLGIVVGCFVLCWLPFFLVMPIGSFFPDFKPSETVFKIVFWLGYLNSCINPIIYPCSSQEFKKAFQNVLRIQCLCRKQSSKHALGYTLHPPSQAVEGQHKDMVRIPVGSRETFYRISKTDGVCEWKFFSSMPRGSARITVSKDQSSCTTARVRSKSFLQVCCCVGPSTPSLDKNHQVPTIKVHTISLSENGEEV

[16] = molecular target: hOPRm1 (Homo sapiens, UniProt P35372); assay: cAMP Potentiation (Eurofins-CEREP); conditions: @ 1 μM
[17] = molecular target: T14, hEGFR(G719S) (Homo sapiens, UniProt P00533, G719S); assay: KINOMEscan; type: binding
T14 construct: purchased DiscoverX

[18] = molecular target: T15, hCIT (Homo sapiens, UniProt O14578); assay: KINOMEscan; type: binding
T15 construct: purchased DiscoverX

[19] = molecular target: T16, hSRMS (Homo sapiens, UniProt Q9H3Y6); assay: KINOMEscan; type: binding
T16 construct: purchased DiscoverX (KINOMEscan platform)

[20] = molecular target: T17, hAURKA (Homo sapiens, UniProt O14965); assay: KINOMEscan; type: binding
T17 construct: purchased DiscoverX

[21] = molecular target: T18, hERK3 (Homo sapiens, UniProt Q16659); assay: KINOMEscan; type: binding
T18 construct: purchased DiscoverX

[22] = molecular target: T19, hAMPK-alpha1 (Homo sapiens, UniProt Q13131); assay: KINOMEscan; type: binding
T19 construct: purchased DiscoverX

[23] = molecular target: T20, hCAMK2B (Homo sapiens, UniProt Q13554); assay: KINOMEscan; type: binding
T20 construct: purchased DiscoverX

[24] = molecular target: T21, hCDKL2 (Homo sapiens, UniProt Q92772); assay: KINOMEscan; type: binding
T21 construct: purchased DiscoverX

[25] = molecular target: T22, hCAMK1D (Homo sapiens, UniProt Q8IU85); assay: KINOMEscan; type: binding
T22 construct: purchased DiscoverX

[26] = molecular target: hADRβ1 (Homo sapiens, UniProt P08588); assay: cAMP Agonist (Eurofins-CEREP); conditions: @ 10 μM
[27] = molecular target: T23, hALK (Homo sapiens, UniProt Q9UM73); assay: KINOMEscan; type: binding
T23 construct: purchased DiscoverX

SMYD2, sequence (Q9NRG4 whole entry): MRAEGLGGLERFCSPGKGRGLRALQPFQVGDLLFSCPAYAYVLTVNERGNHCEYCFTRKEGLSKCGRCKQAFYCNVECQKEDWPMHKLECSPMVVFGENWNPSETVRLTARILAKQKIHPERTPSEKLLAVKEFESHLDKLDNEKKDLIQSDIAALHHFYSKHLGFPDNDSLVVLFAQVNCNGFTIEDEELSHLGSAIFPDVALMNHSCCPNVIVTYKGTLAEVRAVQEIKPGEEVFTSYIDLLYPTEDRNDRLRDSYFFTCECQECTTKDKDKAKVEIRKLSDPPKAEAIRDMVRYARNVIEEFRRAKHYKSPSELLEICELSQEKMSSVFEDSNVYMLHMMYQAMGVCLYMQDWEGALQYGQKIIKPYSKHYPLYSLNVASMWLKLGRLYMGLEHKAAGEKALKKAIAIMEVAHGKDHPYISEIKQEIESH
T22 sequence (Q8IU85 whole entry): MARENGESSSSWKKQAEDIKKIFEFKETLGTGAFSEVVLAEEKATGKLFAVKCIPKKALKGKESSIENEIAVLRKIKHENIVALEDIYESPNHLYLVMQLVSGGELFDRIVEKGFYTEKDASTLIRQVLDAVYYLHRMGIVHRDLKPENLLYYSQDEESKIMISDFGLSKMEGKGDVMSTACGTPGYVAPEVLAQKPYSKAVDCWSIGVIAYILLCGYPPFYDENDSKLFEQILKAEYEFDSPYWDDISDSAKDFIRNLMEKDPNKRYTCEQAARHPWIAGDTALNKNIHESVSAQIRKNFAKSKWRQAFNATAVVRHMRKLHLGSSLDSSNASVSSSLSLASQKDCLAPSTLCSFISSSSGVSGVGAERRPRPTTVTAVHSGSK
T16 sequence (Q9H3Y6 whole entry): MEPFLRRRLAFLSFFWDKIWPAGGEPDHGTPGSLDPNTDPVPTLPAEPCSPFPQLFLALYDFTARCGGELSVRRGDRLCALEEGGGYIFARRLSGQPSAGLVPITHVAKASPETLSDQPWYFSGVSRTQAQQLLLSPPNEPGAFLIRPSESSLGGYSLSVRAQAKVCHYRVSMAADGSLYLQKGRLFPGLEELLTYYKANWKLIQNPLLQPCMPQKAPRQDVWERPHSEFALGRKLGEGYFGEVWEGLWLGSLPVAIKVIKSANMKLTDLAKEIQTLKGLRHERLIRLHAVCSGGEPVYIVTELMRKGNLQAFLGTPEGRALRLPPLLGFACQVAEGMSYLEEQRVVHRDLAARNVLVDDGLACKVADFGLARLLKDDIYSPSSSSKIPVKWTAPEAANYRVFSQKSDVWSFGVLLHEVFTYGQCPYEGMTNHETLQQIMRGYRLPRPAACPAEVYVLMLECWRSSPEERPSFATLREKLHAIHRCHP
T9 sequence (P36894 24-532): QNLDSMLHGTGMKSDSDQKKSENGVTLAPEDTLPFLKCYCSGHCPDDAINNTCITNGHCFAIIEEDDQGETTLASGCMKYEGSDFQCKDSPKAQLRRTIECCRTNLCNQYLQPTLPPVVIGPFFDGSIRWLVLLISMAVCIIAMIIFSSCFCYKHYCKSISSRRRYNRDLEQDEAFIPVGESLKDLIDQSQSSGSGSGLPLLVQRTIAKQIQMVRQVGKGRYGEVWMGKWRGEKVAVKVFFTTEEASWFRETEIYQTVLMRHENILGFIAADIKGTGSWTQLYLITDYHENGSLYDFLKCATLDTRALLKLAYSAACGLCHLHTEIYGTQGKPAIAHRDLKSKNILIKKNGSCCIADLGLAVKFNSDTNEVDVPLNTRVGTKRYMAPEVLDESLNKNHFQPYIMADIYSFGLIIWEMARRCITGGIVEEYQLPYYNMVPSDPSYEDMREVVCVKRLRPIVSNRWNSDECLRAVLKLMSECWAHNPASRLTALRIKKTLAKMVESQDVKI
T2 sequence (P08631 whole entry): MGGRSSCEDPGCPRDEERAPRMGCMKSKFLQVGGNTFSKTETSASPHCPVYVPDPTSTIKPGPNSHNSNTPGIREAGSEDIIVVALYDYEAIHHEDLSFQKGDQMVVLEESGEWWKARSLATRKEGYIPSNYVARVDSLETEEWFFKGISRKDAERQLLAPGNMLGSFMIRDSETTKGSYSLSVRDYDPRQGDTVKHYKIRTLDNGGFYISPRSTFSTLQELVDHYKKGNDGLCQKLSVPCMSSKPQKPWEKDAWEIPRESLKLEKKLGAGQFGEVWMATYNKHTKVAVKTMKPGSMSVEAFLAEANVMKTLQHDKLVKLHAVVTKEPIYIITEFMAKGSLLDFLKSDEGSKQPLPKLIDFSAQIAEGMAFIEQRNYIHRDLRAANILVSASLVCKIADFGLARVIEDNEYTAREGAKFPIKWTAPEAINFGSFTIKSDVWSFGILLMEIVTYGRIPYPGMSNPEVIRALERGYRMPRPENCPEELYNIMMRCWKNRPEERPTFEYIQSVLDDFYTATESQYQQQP
T17 sequence (O14965 whole entry): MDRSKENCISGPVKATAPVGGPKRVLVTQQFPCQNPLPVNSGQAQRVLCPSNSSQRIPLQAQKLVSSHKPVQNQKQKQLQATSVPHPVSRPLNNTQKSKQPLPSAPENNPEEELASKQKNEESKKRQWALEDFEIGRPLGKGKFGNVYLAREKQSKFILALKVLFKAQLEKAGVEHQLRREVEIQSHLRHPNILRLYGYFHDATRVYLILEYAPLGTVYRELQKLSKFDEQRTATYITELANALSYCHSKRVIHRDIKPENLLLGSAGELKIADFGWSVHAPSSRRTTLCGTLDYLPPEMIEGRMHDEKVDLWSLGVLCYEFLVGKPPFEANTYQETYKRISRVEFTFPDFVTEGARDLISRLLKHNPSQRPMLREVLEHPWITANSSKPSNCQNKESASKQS
T5 sequence (Q9BX84 whole entry): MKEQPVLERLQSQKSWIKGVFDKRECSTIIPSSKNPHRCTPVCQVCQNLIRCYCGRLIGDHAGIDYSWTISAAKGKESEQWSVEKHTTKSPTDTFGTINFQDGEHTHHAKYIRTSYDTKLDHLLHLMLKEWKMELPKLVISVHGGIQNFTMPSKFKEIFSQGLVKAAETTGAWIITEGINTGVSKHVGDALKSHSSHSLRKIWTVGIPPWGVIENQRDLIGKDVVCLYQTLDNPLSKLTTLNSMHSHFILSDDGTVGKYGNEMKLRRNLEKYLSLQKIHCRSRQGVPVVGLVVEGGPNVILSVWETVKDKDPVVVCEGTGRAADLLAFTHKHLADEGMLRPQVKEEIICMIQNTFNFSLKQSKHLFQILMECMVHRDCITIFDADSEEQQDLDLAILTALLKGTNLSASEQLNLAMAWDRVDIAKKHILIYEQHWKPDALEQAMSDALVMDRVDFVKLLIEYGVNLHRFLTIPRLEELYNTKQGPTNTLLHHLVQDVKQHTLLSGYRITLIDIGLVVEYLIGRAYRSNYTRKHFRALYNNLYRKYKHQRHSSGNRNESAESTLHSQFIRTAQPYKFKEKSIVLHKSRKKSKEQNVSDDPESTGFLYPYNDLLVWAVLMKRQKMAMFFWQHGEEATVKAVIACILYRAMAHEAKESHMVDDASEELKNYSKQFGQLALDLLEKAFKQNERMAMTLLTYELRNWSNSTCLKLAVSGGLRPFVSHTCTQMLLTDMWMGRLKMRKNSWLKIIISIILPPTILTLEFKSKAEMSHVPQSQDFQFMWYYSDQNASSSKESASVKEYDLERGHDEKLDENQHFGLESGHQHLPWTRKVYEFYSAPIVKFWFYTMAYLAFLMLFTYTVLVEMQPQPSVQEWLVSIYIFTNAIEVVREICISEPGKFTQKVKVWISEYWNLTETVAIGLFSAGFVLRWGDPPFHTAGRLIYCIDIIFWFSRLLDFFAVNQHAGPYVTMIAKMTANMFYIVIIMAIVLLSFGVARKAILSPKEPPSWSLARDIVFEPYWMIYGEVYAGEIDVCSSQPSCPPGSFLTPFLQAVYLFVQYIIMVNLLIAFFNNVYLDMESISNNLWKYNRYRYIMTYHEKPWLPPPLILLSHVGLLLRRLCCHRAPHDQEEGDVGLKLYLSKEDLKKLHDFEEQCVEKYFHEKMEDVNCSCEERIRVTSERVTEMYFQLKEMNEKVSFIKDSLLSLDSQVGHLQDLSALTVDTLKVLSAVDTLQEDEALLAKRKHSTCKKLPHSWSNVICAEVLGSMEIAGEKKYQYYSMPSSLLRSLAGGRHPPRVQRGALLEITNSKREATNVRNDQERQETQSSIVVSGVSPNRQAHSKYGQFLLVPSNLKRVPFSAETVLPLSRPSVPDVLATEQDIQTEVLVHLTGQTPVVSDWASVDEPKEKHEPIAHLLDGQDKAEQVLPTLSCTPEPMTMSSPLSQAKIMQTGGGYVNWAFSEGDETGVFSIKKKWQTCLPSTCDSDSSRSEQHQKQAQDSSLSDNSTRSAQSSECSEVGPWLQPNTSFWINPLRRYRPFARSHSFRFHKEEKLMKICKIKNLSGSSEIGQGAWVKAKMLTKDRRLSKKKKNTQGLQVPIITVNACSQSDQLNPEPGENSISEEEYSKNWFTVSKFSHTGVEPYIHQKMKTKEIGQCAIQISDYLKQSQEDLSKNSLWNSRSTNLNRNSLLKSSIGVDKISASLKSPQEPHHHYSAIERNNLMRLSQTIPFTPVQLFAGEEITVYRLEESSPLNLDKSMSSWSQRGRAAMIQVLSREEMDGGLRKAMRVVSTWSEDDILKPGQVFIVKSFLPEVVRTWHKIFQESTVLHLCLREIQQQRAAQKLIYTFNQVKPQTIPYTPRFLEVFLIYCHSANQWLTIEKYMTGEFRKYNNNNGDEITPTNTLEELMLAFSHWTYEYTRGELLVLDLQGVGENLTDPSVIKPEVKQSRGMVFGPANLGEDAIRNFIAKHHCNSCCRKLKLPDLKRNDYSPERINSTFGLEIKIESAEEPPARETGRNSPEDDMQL

Cc1cn(CCN2CCN(c3ccccc3-c3cc(C#N)cc(C(=O)NCCCN4CCCC4)c3)CC2)c2ccccc12 [LLY-507, 3-cyano-5-{2-[4-[2-(3-methylindol-1-yl)ethyl]piperazin-1-yl]-phenyl}-N-[(3-pyrrolidin-1-yl)propyl]benzamide]
-1.9%: % Effect, Stimulation [15]
9.6%: % Effect, Potentiation [16]
52.7%: % Effect, Stimulation [26]
> 20 µM: IC50 [1] | IC50 [3] | IC50 [4] | IC50 [5] | IC50 [6] | IC50 [7] | IC50 [8] | IC50 [10] | IC50 [11] | IC50 [12] | IC50 [13] | IC50 [14] | IC50 [17] | IC50 [18] | IC50 [19] | IC50 [20] | IC50 [21] | IC50 [22] | IC50 [23] | IC50 [24] | IC50 [25] | IC50 [27]
54 °C: Tm of SMYD2 in presence of compound ([2]; SMYD2 alone Tm = 49 °C)
5 °C: increase in thermal stability of SMYD2 [2]
> 5 fold: increase in sensitivity at 7 days compared with 3 to 4-day treatment [9]
